The results in this text go back to ChEMBL document CHEMBL4028801, “A multifactorial approach to hepatobiliary transporter assessment enables improved therapeutic compound development” (Toxicol Sci, 2013).

A short description of data set [1]: Ratio of drug concentration at steady state in human at 100 to 400 mg, po BID after 12 hrs to IC50 for human BSEP overexpressed in Sf9 insect cells. To be noted: in vivo. Format: ADME, organism-based.
Data set [2] addresses T1, ATP-binding cassette sub-family C member 4 (Homo sapiens, UniProt O15439).
T1 sequence (O15439 whole entry): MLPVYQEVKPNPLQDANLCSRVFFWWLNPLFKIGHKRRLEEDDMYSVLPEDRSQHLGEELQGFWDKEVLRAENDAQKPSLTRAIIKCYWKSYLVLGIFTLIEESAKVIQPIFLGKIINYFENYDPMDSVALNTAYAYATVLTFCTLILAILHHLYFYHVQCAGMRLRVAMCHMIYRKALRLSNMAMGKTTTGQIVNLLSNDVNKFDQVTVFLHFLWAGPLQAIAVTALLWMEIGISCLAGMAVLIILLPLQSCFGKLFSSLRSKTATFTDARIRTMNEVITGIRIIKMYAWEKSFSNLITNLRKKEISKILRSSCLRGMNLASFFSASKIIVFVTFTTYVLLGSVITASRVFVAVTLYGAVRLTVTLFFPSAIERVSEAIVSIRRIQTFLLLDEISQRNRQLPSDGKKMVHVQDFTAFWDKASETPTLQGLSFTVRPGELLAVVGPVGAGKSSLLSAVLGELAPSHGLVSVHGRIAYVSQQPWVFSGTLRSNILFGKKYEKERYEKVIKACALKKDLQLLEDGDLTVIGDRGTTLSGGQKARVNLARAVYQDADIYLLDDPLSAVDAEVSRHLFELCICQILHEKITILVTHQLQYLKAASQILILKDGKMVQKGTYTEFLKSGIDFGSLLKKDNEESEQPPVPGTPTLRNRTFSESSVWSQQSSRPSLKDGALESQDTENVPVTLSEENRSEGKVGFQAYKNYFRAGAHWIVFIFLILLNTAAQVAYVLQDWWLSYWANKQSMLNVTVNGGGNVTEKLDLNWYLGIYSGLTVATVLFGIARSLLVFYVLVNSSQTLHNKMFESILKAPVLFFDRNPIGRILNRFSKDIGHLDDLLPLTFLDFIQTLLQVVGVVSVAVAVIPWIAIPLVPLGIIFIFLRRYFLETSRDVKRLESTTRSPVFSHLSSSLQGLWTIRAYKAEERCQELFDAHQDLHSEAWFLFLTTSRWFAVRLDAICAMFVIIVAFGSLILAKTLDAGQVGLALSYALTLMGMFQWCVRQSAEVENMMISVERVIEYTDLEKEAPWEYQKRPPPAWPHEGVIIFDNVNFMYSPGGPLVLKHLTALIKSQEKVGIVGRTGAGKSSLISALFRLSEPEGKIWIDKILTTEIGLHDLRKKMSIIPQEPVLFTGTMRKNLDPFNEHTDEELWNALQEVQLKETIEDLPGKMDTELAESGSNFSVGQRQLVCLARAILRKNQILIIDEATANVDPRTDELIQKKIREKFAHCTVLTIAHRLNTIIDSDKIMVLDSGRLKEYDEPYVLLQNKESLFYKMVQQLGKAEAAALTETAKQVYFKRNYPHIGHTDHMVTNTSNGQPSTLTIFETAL
Kind of data set: Inhibition of human MRP4 overexpressed in Sf9 cell membrane vesicles assessed as uptake of [3H]-estradiol-17beta-D-glucuronide in presence of ATP and GSH measured after 20 mins by membrane vesicle transport assay. Format: ADME, cell-based.

Data set [3] has as its target ATP-binding cassette sub-family C member 2 (Homo sapiens, UniProt Q92887). In words: Inhibition of human MRP2 overexpressed in Sf9 cell membrane vesicles assessed as uptake of [3H]-estradiol-17beta-D-glucuronide in presence of ATP and GSH measured after 20 mins by membrane vesicle transport assay.
The target in data set [4] is ATP-binding cassette sub-family C member 3 (Homo sapiens, UniProt O15438). In words: Inhibition of human MRP3 overexpressed in Sf9 insect cell membrane vesicles assessed as uptake of [3H]-estradiol-17beta-D-glucuronide in presence of ATP and GSH measured after 10 mins by membrane vesicle transport assay. Format: ADME, cell-based.
Data set [5] concerns the target Bile salt export pump (Homo sapiens, UniProt O95342). Kind of data set: Inhibition of human BSEP overexpressed in Sf9 cell membrane vesicles assessed as uptake of [3H]-taurocholate in presence of ATP measured after 15 to 20 mins by membrane vesicle transport assay. The class given is ADME, cell-based.
A short description of data set [6]: Ratio of drug concentration at steady state in human at 10 to 20 mg, po BID after 12 hrs to IC50 for human MRP4 overexpressed in Sf9 insect cells. Format: ADME, organism-based. To be noted: in vivo.
Data set [7] can be described thus: Drug concentration at steady state in human at 10 to 20 mg, po BID after 12 hrs. The class given is ADME, organism-based. To be noted: in vivo, read-out: Css.
Data set [8] is described as follows: Ratio of drug concentration at steady state in human at 10 to 20 mg, po BID after 12 hrs to IC50 for human BSEP overexpressed in Sf9 insect cells. Format: ADME, organism-based. To be noted: in vivo.
The nature of data set [9]: Ratio of drug concentration at steady state in human at 10 to 20 mg, po BID after 12 hrs to IC50 for human MRP2 overexpressed in Sf9 insect cells. The class given is ADME, organism-based. To be noted: in vivo.
The nature of data set [10]: AUC in human at 10 to 20 mg, po BID after 12 hrs. To be noted: in vivo. The class given is ADME, organism-based.
Data set [11] in a line: Ratio of drug concentration at steady state in human at 40 to 80 mg, po QD after 24 hrs to IC50 for human BSEP overexpressed in Sf9 insect cells. Format: ADME, organism-based. To be noted: in vivo.
Data set [12] in a line: Ratio of drug concentration at steady state in human at 40 to 80 mg, po QD after 24 hrs to IC50 for human MRP4 overexpressed in Sf9 insect cells. The class given is ADME, organism-based. The conditions noted are these: in vivo.
Data set [13] can be described thus: Drug concentration at steady state in human at 40 to 80 mg, po QD after 24 hrs. The class given is ADME, organism-based. To be noted: in vivo, read-out: Css.
A short description of data set [14]: AUC in human at 40 to 80 mg, po QD after 24 hrs. To be noted: in vivo. The class given is ADME, organism-based.
Data set [15] is described as follows: AUC in human at 5 to 20 mg, iv after 24 hrs. Format: ADME, organism-based. The conditions noted are these: in vivo.
In data set [16] the test system is Homo sapiens. In words: Drug concentration at steady state in human at 5 to 20 mg, iv after 24 hrs. To be noted: in vivo. Format: ADME, organism-based.
A short description of data set [17]: Drug concentration at steady state in human at 100 to 600 mg, po QD after 24 hrs. Format: ADME, organism-based. To be noted: in vivo, read-out: Css.
A short description of data set [18]: AUC in human at 100 to 600 mg, po QD after 24 hrs. The class given is ADME, organism-based. To be noted: in vivo.
Data set [19] can be described thus: Ratio of drug concentration at steady state in human at 100 to 600 mg, po QD after 24 hrs to IC50 for human BSEP overexpressed in Sf9 insect cells. Format: ADME, organism-based. To be noted: in vivo.
The test system of data set [20] is Homo sapiens. Kind of data set: Drug concentration at steady state in human at 25 to 50 mg, po TID after 8 hrs. To be noted: in vivo. Format: ADME, organism-based.

ATP-binding cassette sub-family C member 2, sequence (Q92887 whole entry): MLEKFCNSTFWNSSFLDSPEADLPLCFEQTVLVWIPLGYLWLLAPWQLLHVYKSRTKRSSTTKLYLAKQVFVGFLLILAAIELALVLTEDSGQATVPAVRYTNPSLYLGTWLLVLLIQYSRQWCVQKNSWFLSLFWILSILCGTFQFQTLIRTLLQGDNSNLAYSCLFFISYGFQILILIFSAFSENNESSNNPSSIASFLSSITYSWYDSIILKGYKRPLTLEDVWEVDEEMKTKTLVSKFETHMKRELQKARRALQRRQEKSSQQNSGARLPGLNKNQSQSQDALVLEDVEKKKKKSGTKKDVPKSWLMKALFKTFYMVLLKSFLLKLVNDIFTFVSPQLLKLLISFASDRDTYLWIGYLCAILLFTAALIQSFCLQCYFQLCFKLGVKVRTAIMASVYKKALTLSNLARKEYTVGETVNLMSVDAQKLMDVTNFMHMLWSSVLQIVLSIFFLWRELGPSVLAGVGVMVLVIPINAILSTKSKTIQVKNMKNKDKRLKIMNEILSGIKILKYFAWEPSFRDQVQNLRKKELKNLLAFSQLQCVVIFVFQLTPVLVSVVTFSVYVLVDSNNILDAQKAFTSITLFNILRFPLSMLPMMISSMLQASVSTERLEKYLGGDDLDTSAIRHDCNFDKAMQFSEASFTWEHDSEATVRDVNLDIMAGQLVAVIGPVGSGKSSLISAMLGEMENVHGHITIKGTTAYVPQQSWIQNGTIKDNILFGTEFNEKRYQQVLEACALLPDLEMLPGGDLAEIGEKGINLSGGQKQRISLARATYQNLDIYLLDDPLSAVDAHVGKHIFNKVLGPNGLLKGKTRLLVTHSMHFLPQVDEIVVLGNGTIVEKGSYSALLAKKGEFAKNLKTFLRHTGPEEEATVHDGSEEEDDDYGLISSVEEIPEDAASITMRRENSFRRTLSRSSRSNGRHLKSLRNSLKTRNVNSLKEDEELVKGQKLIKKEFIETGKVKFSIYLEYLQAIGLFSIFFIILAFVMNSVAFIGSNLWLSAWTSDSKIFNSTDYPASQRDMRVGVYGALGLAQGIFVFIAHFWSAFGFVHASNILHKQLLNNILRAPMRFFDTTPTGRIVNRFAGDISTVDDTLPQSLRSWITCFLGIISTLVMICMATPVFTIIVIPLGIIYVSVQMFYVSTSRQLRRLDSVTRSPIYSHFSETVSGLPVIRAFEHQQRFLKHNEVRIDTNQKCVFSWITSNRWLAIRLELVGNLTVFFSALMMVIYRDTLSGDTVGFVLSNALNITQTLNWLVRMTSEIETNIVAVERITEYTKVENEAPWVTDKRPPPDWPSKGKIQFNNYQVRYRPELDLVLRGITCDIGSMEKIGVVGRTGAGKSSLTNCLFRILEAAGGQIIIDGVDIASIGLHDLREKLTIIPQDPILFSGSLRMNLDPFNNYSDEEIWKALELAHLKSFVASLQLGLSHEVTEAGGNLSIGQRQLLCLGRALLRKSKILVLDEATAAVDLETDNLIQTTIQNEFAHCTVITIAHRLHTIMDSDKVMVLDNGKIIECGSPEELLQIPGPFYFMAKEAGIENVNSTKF
ATP-binding cassette sub-family C member 3, sequence (O15438 whole entry): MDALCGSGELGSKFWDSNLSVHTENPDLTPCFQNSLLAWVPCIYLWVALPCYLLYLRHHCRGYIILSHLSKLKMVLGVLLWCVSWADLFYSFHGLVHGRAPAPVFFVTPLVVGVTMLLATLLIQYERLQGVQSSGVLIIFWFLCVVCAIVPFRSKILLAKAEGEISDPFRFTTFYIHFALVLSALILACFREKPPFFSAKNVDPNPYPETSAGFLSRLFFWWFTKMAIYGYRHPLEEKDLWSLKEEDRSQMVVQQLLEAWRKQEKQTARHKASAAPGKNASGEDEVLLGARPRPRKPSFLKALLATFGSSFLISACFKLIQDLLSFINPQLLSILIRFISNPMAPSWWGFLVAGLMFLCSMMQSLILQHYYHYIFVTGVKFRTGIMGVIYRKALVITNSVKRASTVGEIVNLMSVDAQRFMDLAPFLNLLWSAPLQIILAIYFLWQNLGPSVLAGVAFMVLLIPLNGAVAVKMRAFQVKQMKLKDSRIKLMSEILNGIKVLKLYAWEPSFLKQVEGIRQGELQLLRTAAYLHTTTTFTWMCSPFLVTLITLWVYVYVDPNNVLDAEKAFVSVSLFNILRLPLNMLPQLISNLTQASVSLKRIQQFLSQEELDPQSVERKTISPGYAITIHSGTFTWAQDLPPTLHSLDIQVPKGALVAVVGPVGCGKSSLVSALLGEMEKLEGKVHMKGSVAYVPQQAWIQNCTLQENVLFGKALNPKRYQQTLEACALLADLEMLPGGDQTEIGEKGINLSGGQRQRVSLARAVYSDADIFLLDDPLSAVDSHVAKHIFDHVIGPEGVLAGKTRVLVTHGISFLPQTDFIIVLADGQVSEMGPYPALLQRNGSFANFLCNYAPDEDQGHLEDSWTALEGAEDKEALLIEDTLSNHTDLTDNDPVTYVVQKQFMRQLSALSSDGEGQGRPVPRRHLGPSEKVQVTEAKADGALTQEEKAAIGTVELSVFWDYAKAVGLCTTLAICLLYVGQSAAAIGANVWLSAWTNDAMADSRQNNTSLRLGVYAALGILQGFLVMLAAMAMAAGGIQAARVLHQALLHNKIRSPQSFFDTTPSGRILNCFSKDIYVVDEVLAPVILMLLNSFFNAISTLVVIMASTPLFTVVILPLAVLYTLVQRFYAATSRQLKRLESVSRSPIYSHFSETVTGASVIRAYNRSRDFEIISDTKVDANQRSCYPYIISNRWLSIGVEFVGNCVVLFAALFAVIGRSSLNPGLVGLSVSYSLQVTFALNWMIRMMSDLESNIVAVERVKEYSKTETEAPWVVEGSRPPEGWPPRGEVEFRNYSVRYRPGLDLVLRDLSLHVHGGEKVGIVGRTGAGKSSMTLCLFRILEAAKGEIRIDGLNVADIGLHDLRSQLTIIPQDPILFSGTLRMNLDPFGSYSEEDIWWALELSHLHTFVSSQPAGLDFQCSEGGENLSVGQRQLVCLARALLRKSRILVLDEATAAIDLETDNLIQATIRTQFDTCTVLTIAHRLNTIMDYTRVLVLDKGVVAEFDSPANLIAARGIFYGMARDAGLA
Bile salt export pump, sequence (O95342 whole entry): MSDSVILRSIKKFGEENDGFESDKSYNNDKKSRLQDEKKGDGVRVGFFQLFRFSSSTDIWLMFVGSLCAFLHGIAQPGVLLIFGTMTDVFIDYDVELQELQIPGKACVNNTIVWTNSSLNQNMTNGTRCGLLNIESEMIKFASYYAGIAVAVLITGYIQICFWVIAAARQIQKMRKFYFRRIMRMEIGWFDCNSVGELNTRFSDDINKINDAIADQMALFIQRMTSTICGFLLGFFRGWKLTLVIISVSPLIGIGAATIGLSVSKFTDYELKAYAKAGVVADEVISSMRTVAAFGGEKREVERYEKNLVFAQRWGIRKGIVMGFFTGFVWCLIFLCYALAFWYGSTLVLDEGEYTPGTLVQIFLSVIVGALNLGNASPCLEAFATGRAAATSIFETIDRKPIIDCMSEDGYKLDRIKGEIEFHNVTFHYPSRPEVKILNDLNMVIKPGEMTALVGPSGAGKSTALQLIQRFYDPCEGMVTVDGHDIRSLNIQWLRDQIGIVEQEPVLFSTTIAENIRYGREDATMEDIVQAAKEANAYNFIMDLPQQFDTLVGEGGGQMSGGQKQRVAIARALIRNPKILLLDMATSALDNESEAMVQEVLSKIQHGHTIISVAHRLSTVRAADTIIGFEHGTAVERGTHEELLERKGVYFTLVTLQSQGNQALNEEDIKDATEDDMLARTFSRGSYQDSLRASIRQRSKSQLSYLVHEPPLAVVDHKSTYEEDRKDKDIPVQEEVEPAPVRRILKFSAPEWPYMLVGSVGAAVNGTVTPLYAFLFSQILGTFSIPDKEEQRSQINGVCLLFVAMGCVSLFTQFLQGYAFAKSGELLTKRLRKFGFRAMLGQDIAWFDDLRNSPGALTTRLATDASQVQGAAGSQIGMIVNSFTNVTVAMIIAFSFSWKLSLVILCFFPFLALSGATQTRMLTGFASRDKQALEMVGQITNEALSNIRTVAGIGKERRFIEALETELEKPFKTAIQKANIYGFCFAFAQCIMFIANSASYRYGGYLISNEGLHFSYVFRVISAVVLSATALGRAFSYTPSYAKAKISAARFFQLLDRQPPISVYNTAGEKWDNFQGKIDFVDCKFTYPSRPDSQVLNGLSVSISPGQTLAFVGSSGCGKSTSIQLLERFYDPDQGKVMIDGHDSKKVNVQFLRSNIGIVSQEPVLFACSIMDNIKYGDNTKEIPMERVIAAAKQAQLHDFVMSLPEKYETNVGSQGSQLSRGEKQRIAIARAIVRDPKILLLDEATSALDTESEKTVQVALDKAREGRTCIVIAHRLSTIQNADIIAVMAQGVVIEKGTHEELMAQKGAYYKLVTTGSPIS

`COCC1=C(C(=O)OC(C)OC(=O)OC(C)C)N2C(=O)[C@@H](NC(=O)/C(=N\OC)c3csc(N)n3)[C@H]2SC1` (stereo not given in full) [CEFPODOXIME PROXETIL]: in data set [1], the Ratio is recorded as 0.022. Besides, the IC50 (usually the concentration needed to halve the response being measured) in data set [2] is above 133 µM; in data set [3], above 133 µM; in data set [4], above 133 µM; in [5], 81.7 µM.
In the case of `COc1cc(C(=O)NS(=O)(=O)c2ccccc2C)ccc1Cc1cn(C)c2ccc(NC(=O)OC3CCCC3)cc12` [ZAFIRLUKAST], the Ratio in [6] stood at 0.025; in data set [8], 0.027; in data set [9], 0.005. The IC50 was 12.1 µM in data set [2], 58.8 µM in [3], above 133 µM in [4] and 11.1 µM in [5]. Also, the concentration at 12 h in data set [7] is 300 nM. Also, the AUC – broadly, the area under the concentration-time curve, a measure of exposure – at 12 h in data set [10] was found to be 3.6 µM·h.
`Cc1nc(-c2ccc(OCC(C)C)c(C#N)c2)sc1C(=O)O` [FEBUXOSTAT]: the Ratio in [11] worked out at 0.024; in data set [12] it was 0.55. For the same compound, the IC50 in [2] was 1.9 µM; in [3], above 133 µM; in data set [4], above 133 µM; in data set [5] it was 42.9 µM. Besides, the concentration at 24 h in [13] was found to be 1050 nM. The compound also returned an AUC at 24 h in data set [14] of 25.1 µM·h.
Turning to `CO[C@H]1C[C@@H]2CC[C@@H](C)[C@@](O)(O2)C(=O)C(=O)N2CCCC[C@H]2C(=O)O[C@H]([C@H](C)C[C@@H]2CC[C@@H](OC(=O)C(C)(CO)CO)[C@H](OC)C2)CC(=O)[C@H](C)/C=C(\C)[C@@H](O)[C@@H](OC)C(=O)[C@H](C)C[C@H](C)/C=C/C=C/C=C/1C` [TEMSIROLIMUS], in data set [15], the AUC at 24 h is 1.91 µM·h. Further, the figures for the IC50 in data set [2], in data set [3] and in data set [4] were 44 µM, 17.6 µM and 71.9 µM, respectively. Further, the Css in data set [16] stood at 79 nM.
Turning to `CCOC(=O)Nc1ccc(NCc2ccc(F)cc2)nc1N` [FLUPIRTINE], the IC50 in data set [2], in data set [3] and in [4] was above 133 µM in each case. Also, in [17], the concentration at 24 h was determined as 832 nM. Moreover, the AUC at 24 h in [18] was determined as 20 µM·h. The Ratio in [19] was found to be 0.023.
`COc1ccc2c(c1)c(CC(=O)O)c(C)n2C(=O)c1ccc(Cl)cc1` [INDOMETHACIN]: the IC50 in [4] is 66 µM. In data set [20], this compound came in with a Css of 1118 nM.
